Measured values published in US11230526B1, “Cylcoalkenyl derivatives useful as agonists of the GPR120 and/or GPR40 receptors” (Janssen Pharmaceutica NV, priority 2018, dated 2022).

Legend:
Format in all cases: cell-based
[1] = target: T1, short form of the GPR120 receptor (Homo sapiens, UniProt Q5NUL3); assay: Human GPR120 DiscoveRx PathHunter Beta-Arrestin assay, Procedure β-arrestin B
T1 construct: host or cells: PathHunter CHO-K1 GPR120S β-Arrestin Cell Line
Excerpt: Human GPR120 DiscoveRx PathHunter® Beta-Arrestin Assay Assay Principle:
The binding of an agonist (medium/long chain fatty acids or small molecule agonists) to the G-protein-coupled receptor GPR120 activates phospholipase C, leading to release of intracellular Ca^+2 through the generation of inositol 1,4,5-trisphosphate (InsP3 or IP3). GPR120 activation can also trigger intracellular signaling via recruitment of Beta-Arrestin. In the present method, agonist-induced activation of the human GPR120 receptor is monitored through the use of PathHunter® CHO-K1 GPR120 Beta-Arrestin Cell Line engineered by DiscoveRx, as detailed below. The cell lines are designed to co-express both the ProLink/Enzyme Donor (PK)-tagged GPCR and the Enzyme […] (EA)-tagged Beta-Arrestin fusion proteins. Upon GPR120 receptor stimulation/activation, the EA-tagged Beta-Arrestin portion is translocated to the tagged receptor, where the two enzyme fragments are brought within close proximity. Under these conditions, these fragments can interact and form an active Beta-gal enzyme complex through Enzyme Fragment Complementation (EFC). This active Beta-gal complex can enzymatically hydrolyse the substrate to produce a detectable light signal; therefore, activation as a function of agonist concentration can be expressed as an EC50 value to determine relative compound activities. This in vitro assay therefore serves to assess compound agonist activity of the GPR120.
In Procedure β-arrestin B the cells used were PathHunter® CHO-K1 GPR120S β-Arrestin Cell Line, expressing the short form of the GPR120 receptor (Accession #[…]), with 5000 cells/well.
The selected CHO-K1 GPR120 β-Arrestin cells were cultured in Ham's F12 media supplemented with 10% fetal bovine serum (FBS), 1% Glutamine, 1×p/s, 800 μg/mL G418 and 300 μg/mL Hygromycin B (for selection). Cell stocks were maintained and grown in a sub-confluent state using standard cell culture procedures. The day before the experiment, the cells were harvested with non-enzymatic cell dissociation buffer and re-suspended in complete growth media at the desired concentration. A Corning 384-plate was then seeded with the proper number of cells in a volume of 25 μL, per well. The seeded plates were incubated overnight at 37° C.
On the day of the experiment, the Assay Buffer containing (a) HBSS with Ca^++ and Mg^++, (b) 20 mM HEPES, and (c) 0.1% BSA stabilizer (pH 7.4) was prepared. The growth medium was gently removed from the cell plates and 20 μL of Assay Buffer added to each well. The plate was then incubated at 37° C. for 60 min. Test compounds were serially diluted in Assay Buffer to desired concentrations (more particularly to one or more of the following μM concentrations: 25, 12.5, 6.25, 3.12, 1.56, 0.78, 0.39, 0.19, 0.10, 0.05, 0.02, 0.01). Five μL of compound dilution was then added to each well and the plate incubated at 37° C. for 90 min. The detection reagents were prepared according to the manufacture's instruction. Twelve μL of the detection reagents were added to each well and the plate incubated at room temperature for 60 min.
The plates were read on an EnVision instrument, using Protocol name: Luminescence, Plate type: 384 Costar, Measurement height: 3 mm, Measurement time: 1 s, Aperture: 384 Plate aperture. The % Activity relative to the positive control was calculated using the following equation:
The % Activity values were plotted versus the concentration of test compound and fitted to a sigmoidal dose-response curve with a Hill slope=1 (fixed value) using nonlinear regression with GraphPad Prism 5.0 to calculate the EC50 values. The Fitting Equation was: Y=Bottom+(Top-Bottom)/(1+10^((Log EC50−X)*HillSlope)), where X is the log of the concentration and Y is the response.

Human GPR120 short form [2] = target: T2, Human GPR120 short form (Homo sapiens, UniProt Q5NUL3); assay: Human GPR120 calcium flux assay, Procedure Calcium B (4200 cells/well)
T2 construct: expressed in transfected cells
T2 sequence (Q5NUL3 1-361): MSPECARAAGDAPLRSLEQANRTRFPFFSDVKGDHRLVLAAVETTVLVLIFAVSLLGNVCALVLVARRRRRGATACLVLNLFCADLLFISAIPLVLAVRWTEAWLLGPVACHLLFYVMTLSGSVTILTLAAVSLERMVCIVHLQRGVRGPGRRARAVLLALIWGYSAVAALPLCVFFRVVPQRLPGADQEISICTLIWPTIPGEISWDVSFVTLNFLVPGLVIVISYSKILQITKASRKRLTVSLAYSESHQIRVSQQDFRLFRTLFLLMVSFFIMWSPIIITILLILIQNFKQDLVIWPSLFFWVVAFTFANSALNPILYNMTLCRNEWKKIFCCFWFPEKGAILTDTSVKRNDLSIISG
In short: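 HEK293 cells stably expressing human GPR120 (NM_001195755.1), 4200 cells/well, starved 1 h and loaded with Fluo-4 NW plus probenecid. Ligand-evoked calcium flux read on FLIPR for 300 s after a 10 s baseline. RFU = Fmax−Fmin; EC50 from four-parameter concentration-response fit.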

human GPR40 = target: T3, human GPR40 (Homo sapiens, UniProt O14842); assay: GPR40 calcium flux assay, human GPR40; conditions: HEK293 cells stably expressing GPR40; table does not say human or rat
T3 construct: expressed in transfected cells
T3 sequence (O14842 whole entry): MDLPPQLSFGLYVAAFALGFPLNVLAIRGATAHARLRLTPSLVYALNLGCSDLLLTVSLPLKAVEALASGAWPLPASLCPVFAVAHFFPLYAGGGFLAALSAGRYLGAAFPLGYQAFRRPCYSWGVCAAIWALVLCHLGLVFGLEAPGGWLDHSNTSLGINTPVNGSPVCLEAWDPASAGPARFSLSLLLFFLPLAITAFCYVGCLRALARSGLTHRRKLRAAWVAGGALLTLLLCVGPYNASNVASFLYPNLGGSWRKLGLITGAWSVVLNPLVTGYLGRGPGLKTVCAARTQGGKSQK
In short: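 Cells preincubated 1 h at 37° C. in HBSS, 20 mM HEPES, 0.1% BSA, then Fluo 8 calcium dye 30 min at 37° C. and 15 min at room temperature.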

Human GPR120 short form [3] = target: T2, Human GPR120 short form; assay: Human GPR120 calcium flux assay, Procedure Calcium A (2500 cells/well)
Excerpt: Human GPR120 in Calcium Flux Assay
This in vitro assay serves to assess test compound agonist activity against the short splice variant (SVS with Accession number NM_001195755.1 confirmed by sequencing data) of the GPR120 receptor. The Human Short splice variant #2 (NM_001195755.1) is missing an in-frame coding exon compared to variant 1 (the Human Long splice variant NM_181745.3), resulting in a shorter isoform (GPR120-S) lacking a 16 aa protein segment compared to isoform GPR120-L. The assay platform utilizes HEK-293 cells stably transfected to express the Human GPR120 short form. These cells are first loaded with the Ca^+2 sensitive dye, Fluo-4 NW. Upon stimulation, intracellular released Ca^+2 can bind to the dye and alter its fluorescence intensity. This increase in fluorescence signal, and thus the flux in intracellular [Ca^2+], is detected and quantitated by fluorescence imaging using a FLIPR reader. The effect of the agonist is measured as a function of concentration and used to calculate an EC50 based upon a response curve.
In this procedure 2500 cells/well were employed.
A Human GPR120 clone (Genbank accession number NM_001195755.1) was placed into the pcDNA3.1 mammalian expression vector carrying the neomycin resistance gene. A stable mammalian cell was generated by placing the above clone into a HEK293 background. Clonal cells responding to long chain fatty acids had expression levels of GPR120 confirmed by RT-qPCR. Human HEK-GPR120 cells were cultured in Dulbecco's Modified Eagle's Medium (DMEM)/F12 medium supplemented with 10% fetal bovine serum (FBS), 1% L-Glutamine and 1% penicillin/streptomycin and 0.5 mg/ml G-418. Cells were split 2 times a week to keep the cells in the log-phase growth.
In preparation for the assay, HEK cells stably transfected with Human GPR120 (2.5K cells per well in 25 uL growth medium) were seeded into 384-well plates and then incubated overnight (37° C., 5% CO2). The next day, the media was changed to 20 μL assay buffer and the cell starved for 1 h at 37° C. The dye loading solution (2× dye) was prepared using 10 mL assay buffer, 100 μL of 250 mM probenecid, 1 bottle of Component A, and 20 μl of dye in DMSO. Twenty μL of the 2× dye loading buffer was then added to each well. The plates were incubated at 37° C. for 30 min, then at room temperature for an additional 15 minutes, before performing the assay on FLIPR.
The assay was performed on a FLIPR plate reader using the following parameters. Baseline was read for 10 seconds at 1 sec intervals. The program was set to transfer 10 μL of ligand from compound plate to cell plate after baseline reading. Aspiration was executed at: 10 μL/sec speed, 4.6 μL height, Dispensing was executed at: 30 μL/sec speed, 45 μL height. After compound addition, each well was read for 300 sec, with measurements collected at 1 sec intervals.
The kinetic data from the FLIPR was based upon a 5 minute window for data collection. The fluorescence of each sample well was used for individual calculations of a normalized RFU value, which was defined as maximum response minus the minimum response. The normalized fluorescence reading (RFU) was calculated as follows: RFU=Fmax−Fmin
The Fitting Equation was: Y=Bottom+(Top-Bottom)/(1+10^((Log EC50−X)*HillSlope)), where X is the log of the concentration and Y is the response.

T1 sequence (P32121 whole entry partner, one chain of several): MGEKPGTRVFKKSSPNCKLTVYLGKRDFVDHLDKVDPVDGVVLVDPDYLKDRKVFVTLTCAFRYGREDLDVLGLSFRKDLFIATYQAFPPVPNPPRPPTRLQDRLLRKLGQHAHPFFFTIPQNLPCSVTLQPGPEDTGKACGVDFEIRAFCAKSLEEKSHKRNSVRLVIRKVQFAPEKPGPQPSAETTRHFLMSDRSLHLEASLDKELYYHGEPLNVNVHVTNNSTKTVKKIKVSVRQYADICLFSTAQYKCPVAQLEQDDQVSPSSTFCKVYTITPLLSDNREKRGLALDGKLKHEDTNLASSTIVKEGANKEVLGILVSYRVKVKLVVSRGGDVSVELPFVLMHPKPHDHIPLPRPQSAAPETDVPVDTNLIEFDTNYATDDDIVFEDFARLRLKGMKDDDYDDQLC

Row | Structure (SMILES) | EC50 [1] [nM] | EC50 (Human GPR120 short form [2]) [nM] | EC50 (human GPR40) [nM] | EC50 (Human GPR120 short form [3]) [nM]
1 | CC(Cc1ccc(OCC2=C(c3ccc(F)cc3)CCC2)c(F)c1)C(=O)O (stereo not drawn) [Compound 458, 3-(3-fluoro-4-((2-(4-fluorophenyl)cyclopent-1-en-1-yl)methoxy)phenyl)-2-methylpropanoic Acid] | 371 | 331 |  | 
2 | O=C(O)CCc1ccc(OCC2=C(c3ccc(Cl)cc3)CCCC2)cc1F [Compound 504, 3-[4-[[2-(4-chlorophenyl)cyclohexen-1-yl]methoxy]-2-fluoro-phenyl]Propanoic Acid] |  | 330 | 4020 | 2820
3 | Cc1ccc(C2=C(COc3ccc(CCC(=O)O)c(C)c3C)CCCC2)cn1 [Compound 521] |  | 626 | > 5000 | 1280
4 | Cc1c(CCC(=O)O)ccc(OCC2=C(c3ccc(C#N)cc3)CCC2)c1C [Compound 146, 3-[4-[[2-(4-cyanophenyl)cyclopenten-1-yl]methoxy]-2,3-dimethyl-phenyl]Propanoic Acid] |  | 208 | > 5000 | 1560
5 | Cc1c(CCC(=O)O)ccc(OCC2=C(c3ccc(C#N)cc3)CCCC2)c1C [Compound 520, 3-[4-[[2-(4-cyanophenyl)cyclohexen-1-yl]methoxy]-2,3-dimethyl-phenyl]Propanoic Acid] |  | 1450 | > 5000 | 2360
6 | Cc1ccc(C2=C(COc3ccc(CCC(=O)O)c(F)c3F)CCC2)cn1 [Compound 87, 3-(2,3-difluoro-4-((2-(6-methylpyridin-3-yl)cyclopent-1-en-1-yl)methoxy)phenyl)Propanoic Acid] | 493 |  | > 5000 | 
7 | Cc1c(CCC(=O)O)ccc(OCC2=C(c3ccc(Cl)cc3)CCC2(O)C(F)(F)F)c1C (stereo not drawn) [Compound 69, 3-[4-[[2-(4-chlorophenyl)-5-hydroxy-5-(trifluoromethyl)cyclopenten-1-yl]methoxy]-2,3-dimethyl-phenyl]Propanoic Acid] |  | 2460 | > 5000 | > 5000
8 | Cc1c(CCC(=O)O)ccc(OCC2=C(c3ccncc3)CCCC2)c1C [Compound 465, 3-[2,3-dimethyl-4-[[2-(4-pyridyl)cyclohexen-1-yl]methoxy]phenyl]Propanoic Acid] |  | 1450 | > 5000 | 2170
9 | Cc1c(CCC(=O)O)ccc(OCC2=C(c3ccccn3)CCCC2)c1C [Compound 490, 3-[2,3-dimethyl-4-[[2-(2-pyridyl)cyclohexen-1-yl]methoxy]phenyl]Propanoic Acid] |  | 743 | > 5000 | 2190
10 | Cc1ccc(C2=C(COc3c(F)cc(CCC(=O)O)cc3F)CCC2)cc1N [Compound 135, 3-(4-((2-(3-amino-4-methylphenyl)cyclopent-1-en-1-yl)methoxy)-3,5-difluorophenyl)Propanoic Acid] | 1250 |  | > 5000 | 
11 | Cc1c(CCC(=O)O)ccc(OCC2=C(c3cc(Cl)cc(Cl)c3)CCC2)c1C [Compound 112, 3-[4-[[2-(3,5-dichlorophenyl)cyclopenten-1-yl]methoxy]-2,3-dimethyl-phenyl]Propanoic Acid′] |  | 3070 | > 5000 | 2460
12 | Cc1cc(OCC2=C(c3ccc(Cl)cc3)CCCC2)ccc1CCC(=O)O [Compound 506, 3-[4-[[2-(4-chlorophenyl)cyclohexen-1-yl]methoxy]-2-methyl-phenyl]Propanoic Acid] |  | 182 | > 5000 | 1590
13 | O=C(O)CCc1cc(F)c(OCC2=C(c3ccc(Cl)cc3)CCC(F)(F)C2)c(F)c1 [Compound 491, 3-[4-[[2-(4-chlorophenyl)-5,5-difluoro-cyclohexen-1-yl]methoxy]-3,5-difluoro-phenyl]Propanoic Acid] |  | 97 | > 5000 | 532
14 | Cc1ccc(C2=C(COc3ccc(CCC(=O)O)c(F)c3F)CCC2)cc1[N+](=O)[O-] [Compound 92, 3-(2,3-difluoro-4-((2-(4-methyl-3-nitrophenyl)cyclopent-1-en-1-yl)methoxy)phenyl)Propanoic Acid] |  | 373 | > 5000 | 1260
15 | O=C(O)CCc1ccc(OCC2=C(c3ccccc3)CCC2)cc1 [Compound 19, 3-(4-((2-phenylcyclopent-1-en-1-yl)methoxy)phenyl)Propanoic Acid] |  | 603 | > 5000 | 1930
